Measured values: patent publication US20210038577A1, “THIOREDOXIN REDUCTASE INHIBITORS FOR USE IN THE TREATMENT OF CANCER” (Cinda Pharma AB, priority 2018, published 2021)

Columns and labels:
[1] = tested on: U-87 MG (a glioblastoma cell line); assay: MTT cell viability assay, U-87 MG; assay type: cell-based; conditions: Homo sapiens, U-87 MG, 72 hrs
Description: (§1) MDA-MB-453 (ATCC HTB-131) cells were grown in media with sodium pyruvate. MDA-MB-231 cells (ATCC HTB-26) were grown in DMEM media or L-15 supplemented with Glutamax (1×). U87-MG (ATCC HTB-14) and MDA-MB-468 (ATCC HTB-132) cells were cultured in DMEM supplemented with Glutamax (1×). NB-4 (DSMZ ACC-207) cells were cultured in RPMI 1640.
(§2) Breast cancer and glioblastoma cell lines were plated 4000 cells/well in 96-well plates in the presence of 10% FBS media. The following day cells were treated with various concentrations of the example compounds (0.1% DMSO final) and incubated for 72 hrs. After the incubation an MTT assay was performed to access cell viability. Percent of viability was determined using DMSO vehicle and no cell (blank) controls.

[2] = tested on: MDA-MB-231 (a breast cancer cell line); assay: MTT cell viability assay, MDA-MB-231; assay type: cell-based, human
Description: as §1, §2

MDA-MB-231 cells [3] = assay: Alamar-Blue cell viability assay; assay type: cell-based, human; conditions: Homo sapiens, MDA-MB-231, 72 hrs
Description: MDA-MB-231 cells were plated 2000 cells/well in 96-well black optical plates in the presence of 10% FBS media containing 25 nM selenite. The following day cells were treated with various concentrations of compounds (0.1% DMSO final) and incubated for 72 hrs. After the incubation Alamar Blue reagent was added to each well and incubated for additional 3 hrs. Fluorescence was read ex:530 nm/em:590 nm, and percent of viability was determined using DMSO vehicle and no cell (blank) controls.

4T1 tumors = assay: Intratumoral immune cell populations in engrafted 4T1 tumors in BALB/c mice (FACS); assay type: in vivo; conditions: 1 mg/kg intratumorally bid for 5 days, day 6
Description: Intratumoral immune cell populations within engrafted 4T1 cells in BALB/c mice. 4T1 cells are a murine mammary carcinoma cell line. BALB/c mice are immunocompetent. 1×10^6 4T1 tumor cells in 0% Matrigel were implanted orthotopically into the mammary fat pad. Enrollment of the mice into the treatment arms commenced when the tumors reached an average volume between 175-200 mm^3. […] Tumor volumes were measured using a digital caliper on day 1, 3, and 6 of the study. On day 6 mice were euthanized and tumors were resected for FACs analysis. Populations of murine immune cells including CD45+, CD4+, CD8+, and Tregs were analyzed. CD45+ positive cells were analyzed as the percentage of live cells. CD4+, CD8+, and Tregs cells were analyzed as percentage of CD45+ positive cells.

GR from baker's yeast = target: T1, GR from baker's yeast (Saccharomyces cerevisiae, UniProt P41921); assay: Glutathione reductase (GR) activity assay; assay type: biochemical; conditions: Molar concentration
T1 sequence (P41921 17-483 limits assumed): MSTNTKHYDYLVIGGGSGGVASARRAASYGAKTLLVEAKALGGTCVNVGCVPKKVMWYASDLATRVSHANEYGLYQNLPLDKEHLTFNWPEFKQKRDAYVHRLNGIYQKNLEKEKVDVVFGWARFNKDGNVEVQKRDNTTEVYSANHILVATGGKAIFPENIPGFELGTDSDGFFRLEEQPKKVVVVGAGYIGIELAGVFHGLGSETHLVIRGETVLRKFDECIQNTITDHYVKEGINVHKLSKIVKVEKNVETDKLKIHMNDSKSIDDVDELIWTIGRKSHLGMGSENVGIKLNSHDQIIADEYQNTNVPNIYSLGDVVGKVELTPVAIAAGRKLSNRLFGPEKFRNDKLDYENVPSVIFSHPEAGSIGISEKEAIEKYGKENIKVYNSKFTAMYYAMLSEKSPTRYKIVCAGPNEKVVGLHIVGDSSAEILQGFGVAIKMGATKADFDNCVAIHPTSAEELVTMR
Description: GR activity was determined incubating compounds at various concentrations with GR from baker's yeast and 250 μM NADPH for 15 minutes, whereupon 10 mM oxidized glutathione (GSSG) was added to each well and NADPH consumption was followed at OD340. Activity was determined following the consumption of NADPH over time and normalized to DMSO only (Vehicle) and GR lacking (blank) controls.

[4] = tested on: NB-4 (a leukaemia cell line); assay: MTT cell viability assay, NB-4; assay type: cell-based; conditions: 72 hrs
Description: as §1, §2

[5] = tested on: MDA-MB-468 (a breast cancer cell line); assay: MTT cell viability assay, MDA-MB-468; assay type: cell-based; conditions: Homo sapiens, MDA-MB-468, 72 hrs
Description: as §1, §2

MDA-MB-231 cells [6] = assay: CellQuanti-Blue cell viability assay, MDA-MB-231; assay type: cell-based, human
Description: Cell viability was then assessed using the CellQuanti assay. Relative cell viability was determined using DMSO only and blank controls.
Cells were plated at 2000 cells/well into 96-well plates in media containing 10% FBS. […] CellQuanti-Blue cell viability reagent was added to each well and the plates were subsequently incubated at 37° C. for 3 hours. Viability was determined fluorometrically using an Enspire plate reader […] excitation: 530 nm, emission: 590 nm. Viability was normalized to DMSO controls and blank wells with media.

IC50 [1]	IC50 ([2]; Homo sapiens, MDA-MB-231, 72 h)	IC50 (MDA-MB-231 cells [3])	IC50 (GR from baker's yeast)	IC50 [4]	IC50 [5]	IC50 ([2]; 72 hrs)	SMILES	CD8+ levels in tumors relative to no treatment controls (4T1 tumors)	ratio of CD8+ cells to Treg cells in tumours (4T1 tumors)	sensitivity of MDA-MB-231 cells over time of exposure (MDA-MB-231 cells [6]; 24, 48, 72 hours (FIG. 2A))	potency relative to Iniparib in MDA-MB-231 cells (MDA-MB-231 cells [6]; CellQuanti-Blue, 24, 48 or 72 hours)
> 33 µM	> 33 µM	54.4 µM	> 30 µM	57.6 µM	> 33 µM	–	NC(=O)c1ccc(I)c([N+](=O)[O-])c1 [Iniparib, 4-Iodo-3-nitrobenzamide, reference compound]	significantly increased	increases	–	–
12.7 µM	3.14 µM	3.53 µM	> 30 µM	1.2 µM	9.21 µM	–	COc1ccc([N+](=O)[O-])c(S(=O)(=O)c2ccc(Cl)cc2)n1 [OT-1000, 2-((4-Chlorophenyl)sulfonyl)-6-methoxy-3-nitropyridine]	–	–	increasingly sensitive	100 fold
–	–	–	> 30 µM	3.22 µM	–	–	CCCCCCCCS(=O)(=O)c1nc(OC)ccc1[N+](=O)[O-] [OT-1096, 6-methoxy-3-nitro-2-(octylsulfonyl)pyridine]	significantly increased	increases	–	–
–	–	–	> 30 µM	1.12 µM	–	4.88 µM	CCS(=O)(=O)c1nc(OC)ccc1[N+](=O)[O-] [OT-1129, 2-(ethylsulfonyl)-6-methoxy-3-nitropyridine]	–	–	–	–
